In patent US20140363406A1, “ESTROGEN METABOLITE LEVELS AND CYP1B1 POLYMORPHISMS IN LUNG CANCER DIAGNOSIS, PROGNOSIS, AND RISK ASSESSMENT” (Institute for Cancer Research d/b/a The Research Institute …, priority 2012, published 2014):

Target: T1, CYP1B1 (Mus musculus, UniProt Q64429)
T1 sequence (Q64429 1-543): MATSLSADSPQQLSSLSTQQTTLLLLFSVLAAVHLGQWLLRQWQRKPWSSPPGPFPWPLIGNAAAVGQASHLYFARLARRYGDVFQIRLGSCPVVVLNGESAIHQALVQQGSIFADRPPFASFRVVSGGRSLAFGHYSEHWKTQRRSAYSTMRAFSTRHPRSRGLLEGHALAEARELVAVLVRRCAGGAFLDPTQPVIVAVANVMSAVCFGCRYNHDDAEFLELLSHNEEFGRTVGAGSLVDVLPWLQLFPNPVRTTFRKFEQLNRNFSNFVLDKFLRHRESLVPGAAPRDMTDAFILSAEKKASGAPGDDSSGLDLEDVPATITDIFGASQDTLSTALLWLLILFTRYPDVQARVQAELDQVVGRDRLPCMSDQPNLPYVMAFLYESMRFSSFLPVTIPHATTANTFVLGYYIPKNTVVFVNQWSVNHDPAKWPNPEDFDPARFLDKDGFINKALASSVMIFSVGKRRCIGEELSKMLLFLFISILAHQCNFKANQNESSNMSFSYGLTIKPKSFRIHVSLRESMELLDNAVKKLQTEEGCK
Assay: Impact of Cyp1b1 deletion on lung estrogen/EM levels (Cyp1b1-KO vs Cyp1b1-WT 129SvJ mice), LC-MS2
Method: Animals. […] Smoke exposures were performed on female C57/B6 mice (1.5-2 years old) carrying a human APOE*4 transgene that were part of an atherosclerosis study at Duke University and fed a high-fat diet TD.88051. Animals had free access to food and water. All animal experimentation was approved by the Institutional Animal Care and Use Committees at Fox Chase Cancer Center and Duke University.
Genotyping. PCR-based genotyping of Cyp1b1 wild-type (Cyp1b1-WT) and knockout (Cyp1b1-K0) mice was performed using Choice Taq Blue DNA Polymerase Master mix (Denville Scientific, South Plainfield, N.J.) according to the following protocol: Wild-type primers—[…]
Lung tissue collection. Following euthanasia, the lungs were perfused by intracardiac injection with 30 ml phosphate buffered saline to flush out the blood. Perfused tissues were snap-frozen in liquid nitrogen and stored at −80° C. The accessory lobe of the lung was reserved for RNA extraction, whereas the remaining lobes were processed for estrogen metabolite analyses.
Sample preparation. Lung tissue samples (0.1-0.2 g per sample) from Cyp1b1-WT or Cyp1b1-KO mice (female and male, 12-14 weeks of age, n=4-5 per group) were thawed at room temperature, minced with scissors and transferred into 1.5 ml Eppendorf tubes. […] The tissue was homogenized on ice using a Tissue Tearor™ (Cole-Parmer, Vernon Hills, Ill.) at low and high speeds in two consecutive 15 s increments for a total of 30 s, and further sonicated on ice (five cycles of 10 s pulses with 10 s breaks between pulses). Eight milliliters of ethanol:acetone and […] each of stable isotope-labeled estrogen internal standards (0.32 ng/ml working standard solutions) were added to each tissue homogenate. The mixture was incubated on a rotator at room temperature for 1 h and centrifuged at 3000 ×g for 30 min. The ethanol:acetone tissue extract was transferred to a clean glass tube and dried under nitrogen gas at 60° C. for 60 min (Reacti-Vap III™, Pierce, Rockford, Ill.). The residue was redissolved in 4 ml of methanol, vortexed for 1 min, chilled at -80° C. for 1 h, returned to room temperature and centrifuged at 3000 × g for 20 min. The methanolic phase was transferred to a clean glass tube and dried under nitrogen gas. The residue was redissolved in 100 μl of ethanol and vortexed briefly. This step was followed by the addition of 1.5 ml of 100 mM sodium acetate buffer, pH 4.6, and 5 ml of dichloromethane to the residue and incubation at room temperature on a rotator for 30 min.
The extract was chilled at −80° C. for 10 min, returned to room temperature and centrifuged at 3000 × g for 20 min. The dichloromethane phase was transferred to a clean tube and dried. To each dried sample, 40 μl of 0.1 M sodium bicarbonate buffer, pH 9.0, and 40 μl of dansyl chloride solution (1 mg/ml in acetone) were added. After vortexing for 10 s, samples were heated at 70° C. (Reacti-Therm III™ Heating Module, Pierce, Rockford, Ill.) for 10 min to form the EM and SI-EM dansyl derivatives. All samples were centrifuged at 3000 ×g for 20 min and analyzed using LC-M5^2. The efficiency of extracting estrogen and its metabolites from the tissue cannot be measured accurately because a known amount of each metabolite cannot be placed in the tissue prior to extraction. Furthermore, the amount of estrogens/EM present at baseline is unknown.
LC-MS^2 analysis was performed using a Shimadzu Prominence UFLC system (Shimadzu Scientific Instruments, Columbia, Md.) coupled with a TSQ™ Quantum Ultra triple quadrupole mass spectrometer (Thermo Electron, San Jose, Calif.). The LC separation was carried out on a 50 mm long×2 mm […] column packed with 2.5 μm Synergi Hydro-RP particles (Phenomenex, Torrance, Calif.) maintained at 40° C. A 20 μl aliquot of each sample was injected onto the column.

C[C@]12CC[C@@H]3c4cc(O)c(O)cc4CC[C@H]3[C@@H]1CCC2=O [2-OHE1, 2-hydroxyestrone]
percentage of total estrogen, male versus female (in words) (Cyp1b1-KO mice): no significant difference | increase in lung level in Cyp1b1-KO compared with WT controls (females): 3 fold | increase in lung level in Cyp1b1-KO compared with WT controls (males): 1.7 fold

C[C@]12CC[C@@H]3c4ccc(O)c(O)c4CC[C@H]3[C@@H]1CCC2=O [4-OHE1, 4-hydroxyestrone]
decrease in lung level by deletion of Cyp1b1 (female Cyp1b1-KO vs WT): 21 fold | lung level in Cyp1b1-KO as % of WT controls (females): 4.7% | decrease in lung level by deletion of Cyp1b1 (male Cyp1b1-KO vs WT): 14 fold | lung level in Cyp1b1-KO as % of WT controls (males): 7.4%

C[C@]12CC[C@@H]3c4ccc(O)c(O)c4CC[C@H]3[C@@H]1CC[C@@H]2O [4-OHE2, 4-hydroxyestradiol]
lung level reduced in Cyp1b1-KO compared with Cyp1b1-WT controls (both sexes): ~50% | lung level reduced in Cyp1b1-KO compared with Cyp1b1-WT controls (females): 60% | lung level reduced in Cyp1b1-KO compared with Cyp1b1-WT controls (males): 56%
